Molecular target: T1, Tubulin--tyrosine ligase (Homo sapiens, UniProt Q8NG68)
T1 sequence (Q8NG68 whole entry): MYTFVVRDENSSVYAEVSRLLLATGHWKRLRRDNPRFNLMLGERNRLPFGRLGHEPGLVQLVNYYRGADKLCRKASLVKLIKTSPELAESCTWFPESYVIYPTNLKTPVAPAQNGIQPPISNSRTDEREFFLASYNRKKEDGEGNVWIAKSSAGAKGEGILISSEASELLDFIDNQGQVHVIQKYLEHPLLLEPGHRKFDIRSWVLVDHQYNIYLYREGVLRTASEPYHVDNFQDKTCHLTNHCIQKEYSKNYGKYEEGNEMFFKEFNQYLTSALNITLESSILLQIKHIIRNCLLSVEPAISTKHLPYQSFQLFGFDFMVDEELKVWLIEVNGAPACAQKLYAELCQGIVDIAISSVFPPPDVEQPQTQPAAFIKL
Test: [3H]-Tyr Incorporation Assay
Settings: pH 6.8; 37 °C
Text: Inhibition of [3H]-L-tyrosine incorporation into tubulin by enzyme tubulin tyrosine ligase (TTL).

Ki | Compound
> 4000 µM | Nc1ccc(CC(N)C(=O)O)cc1 (stereo not drawn) [4-Aminophenylalanine]
200 µM | [N-]=[N+]=Nc1cc(CC(N)C(=O)O)ccc1O (stereo not drawn) [3-Azidotyrosine]
300 µM | NC(Cc1ccc(O)c(C=O)c1)C(=O)O (stereo not drawn) [3-Formyltyrosine]
